The data set relates to SKOV-3 cancer cell lines. The data set is described as follows: SKOV-3 cell viability after treatment with 10 μM test compound. It is filed as cell-based. To be noted: for viability at 10 µM: Homo sapiens, SK-OV-3, 10 micromolar test compound, SKOV-3 cells; for % viability after treatment with 10 micromolar of test compound (SKOV-3 cells): 10 micromolar test compound. How it is done:
SKOV-3 cancer cell lines were treated with a test compound, either as a pure enantiomer or a mixture of stereoisomers, at a concentration of 10 μM. Cell viability was evaluated following treatment with a compound as disclosed in Table B. Viability of cancer cells following treatment is indicated according to the following legend:
A=0-25% viability B=26-50% viability C=>50% viability

Where a name gives a salt, the structure may show the parent alone.

This note sets out measurements from patent US20230295181A1, “INHIBITOR OF APOPTOSIS (IAP) PROTEIN ANTAGONISTS” (Sanford Burnham Prebys Medical Discovery Institute, priority 2020, published 2023).

In general, viability refers to a read-out of living cells in per cent, often relative to untreated cells. High values mean less harm to the cells, low ones more harm to the cells. Compound `C=CCC1C[C@@H]2OCC[C@H](NC(=O)[C@H](C)NC)C(=O)N2[C@@H]1C(=O)NC(c1ccccc1)c1ccccc1` (stereo partly drawn) [Compound 53, (4S)-8,8-allyl-N-benzhydryl-4-((S)-2-(methylamino)propanamido)-5-oxooctahydropyrrolo[2,1-b][1,3]oxazepine-7-carboxamide hydrochloride] showed a viability at 10 µM of 26 to 50%.

With `CN[C@@H](C)C(=O)N[C@H]1CCO[C@H]2CC(C)(C)[C@@H](CN[C@@H]3CCOc4ccccc43)N2C1=O` [Compound 73, (S)—N-((4S,7S,9aS)-7-((((R)-chroman-4-yl)amino)methyl)-8,8-dimethyl-5-oxooctahydropyrrolo[2,1-b][1,3]oxazepin-4-yl)-2-(methylamino)propanamide dihydrochloride], the viability at 10 µM was 26 to 50%. Regarding `CN[C@@H](C)C(=O)N[C@H]1CCO[C@H]2CC(C)(C)[C@@H](CN[C@@H]3CCSc4ccccc43)N2C1=O` [Compound 68, (S)—N-((4S,7S,9aS)-8,8-dimethyl-5-oxo-7-((((R)-thiochroman-4-yl)amino)methyl)octahydropyrrolo[2,1-b][1,3]oxazepin-4-yl)-2-(methylamino)propanamide dihydrochloride], the “% viability after treatment with 10 micromolar of test compound (SKOV-3 cells)” value (“% viability after treatment” for short) (dihydrochloride) is recorded as “C (C=>50% viability)”. Regarding `CN[C@@H](C)C(=O)N[C@H]1Cc2cc(OC)ccc2[C@H]2CC(C)(C)C(C(=O)N[C@@H]3CCCc4ccccc43)N2C1=O` (stereo partly shown) [Compound 7], the “% viability after treatment” value was “B (B=26-50% viability)”. For the compound `CN[C@@H](C)C(=O)N[C@H]1CCS[C@H]2CC(C(C)C)(C(C)C)[C@@H](C(=O)N[C@@H]3CCCc4ccccc43)N2C1=O` [Compound 40, 4S,9aS)-8,8-diisopropyl-4-((S)-2-(methylamino)propanamido)-5-oxo-N—((R)-1,2,3,4-tetrahydronaphthalen-1-yl)octahydropyrrolo[2,1-b][1,3]thiazepine-7-carboxamide hydrochloride], the “% viability after treatment” value (hydrochloride) is reported as “C (C=>50% viability)”. Still for that read-out and setting: to `CN[C@@H](C)C(=O)N[C@H]1CCS[C@H]2CC(C(C)C)(C(C)C)[C@@H](C(=O)N[C@@H]3CCCc4ccccc43)N2C1=O` [Compound 43, 4S,9aS)-8,8-diisopropyl-4-((S)-2-(methylamino)propanamido)-5-oxo-N—((R)-1,2,3,4-tetrahydronaphthalen-1-yl)octahydropyrrolo[2,1-b][1,3]thiazepine-7-carboxamide hydrochloride] belongs “C (C=>50% viability)”; to `CN[C@@H](C)C(=O)N[C@H]1CCS[C@H]2CC(C(C)C)(C(C)C)[C@@H](C(=O)N[C@@H]3CCCc4ccccc43)N2C1=O` [Compound 42, 4S,9aS)-8,8-diisopropyl-4-((S)-2-(methylamino)propanamido)-5-oxo-N—((R)-1,2,3,4-tetrahydronaphthalen-1-yl)octahydropyrrolo[2,1-b][1,3]thiazepine-7-carboxamide hydrochloride], “C (C=>50% viability)”; to `CCC1(CC)C[C@@H]2SCC[C@H](NC(=O)[C@H](C)NC)C(=O)N2[C@@H]1C(=O)N[C@@H]1CCCc2ccccc21` [Compound 35, (4S,9aS)-8,8-diethyl-4-((S)-2-(methylamino)propanamido)-5-oxo-N—((R)-1,2,3,4-tetrahydronaphthalen-1-yl)octahydropyrrolo[2,1-b][1,3]thiazepine-7-carboxamide hydrochloride], “A (A=0-25% viability)”.

For `CN[C@@H](C)C(=O)N[C@H]1CCO[C@H]2CC(CCc3ccccc3)(CCc3ccccc3)[C@H](C(=O)N[C@@H]3CCCc4ccccc43)N2C1=O` [Compound 22, (4S,9aS)-4-((S)-2-(methylamino)propanamido)-5-oxo-8,8-diphenethyl-N—((R)-1,2,3,4-tetrahydronaphthalen-1-yl)octahydropyrrolo[2,1-b][1,3]oxazepine-7-carboxamide hydrochloride], the viability at 10 µM fell in the range of 0 to 25%. In the case of `CN[C@@H](C)C(=O)N[C@H]1CCO[C@H]2CC(C(C)C)(C(C)C)[C@@H](C(=O)NC(c3ccccc3)c3ccccc3)N2C1=O` [Compound 60, (4S)—N-benzhydryl-8,8-diisopropyl-4-((S)-2-(methylamino)propanamido)-5-oxooctahydropyrrolo[2,1-b][1,3]oxazepine-7-carboxamide hydrochloride], the “% viability after treatment” value (hydrochloride) is “A (A=0-25% viability)”.

With `CN[C@@H](C)C(=O)N[C@H]1CCS[C@H]2CC(CCc3ccccc3)[C@@H](C(=O)N[C@@H]3CCCc4ccccc43)N2C1=O` (stereo partly drawn) [Compound 46, (4S,9aS)-4-((S)-2-(methylamino)propanamido)-5-oxo-8,8-phenethyl-N—((R)-1,2,3,4-tetrahydronaphthalen-1-yl)octahydropyrrolo[2,1-b][1,3]thiazepine-7-carboxamide hydrochloride], the “% viability after treatment” value (hydrochloride) was “B (B=26-50% viability)”. Same read-out and setting: to `C=CCC1(CC=C)C[C@@H]2OCC[C@H](NC(=O)[C@H](C)NC)C(=O)N2[C@@H]1C(=O)NC(c1ccccc1)c1ccccc1` [Compound 48, (4S)-8,8-diallyl-N-benzhydryl-4-((S)-2-(methylamino)propanamido)-5-oxooctahydropyrrolo[2,1-b][1,3]oxazepine-7-carboxamide hydrochloride] belongs “C (C=>50% viability)”. Turning to `CN[C@@H](C)C(=O)N[C@H]1CCO[C@H]2CC(CCc3ccccc3)(CCc3ccccc3)[C@@H](C(=O)N[C@@H]3CCCc4ccccc43)N2C1=O` [Compound 26, (4S,9aS)-4-((S)-2-(methylamino)propanamido)-5-oxo-8,8-diphenethyl-N—((R)-1,2,3,4-tetrahydronaphthalen-1-yl)octahydropyrrolo[2,1-b][1,3]oxazepine-7-carboxamide hydrochloride], the “% viability after treatment” value (hydrochloride) is on record as “C (C=>50% viability)”. `C#CCO[C@@H]1Cc2ccccc2[C@@H]1NC(=O)[C@H]1N2C(=O)[C@@H](NC(=O)[C@H](C)NC)CCS[C@H]2CC1(C)C` [Compound 83, (2S)-1-{[(4S,7S,9aS)-8,8-Dimethyl-5-oxo-7-{[(1S,2R)-2-(prop-2-yn-1-yloxy)-2,3-dihydro-1H-inden-1-yl]carbamoyl}octahydropyrrolo[2,1-b][1,3]thiazepin-4-yl]amino}-N-methyl-1-oxopropan-2-ammonium chloride] returned a viability at 10 µM of 0 to 25%.

For the compound `CCC1(CC)C[C@@H]2SCC[C@H](NC(=O)[C@H](C)NC)C(=O)N2[C@@H]1C(=O)N[C@@H]1CCCc2ccccc21` [Compound 37, (4S,9aS)-8,8-diethyl-4-((S)-2-(methylamino)propanamido)-5-oxo-N—((R)-1,2,3,4-tetrahydronaphthalen-1-yl)octahydropyrrolo[2,1-b][1,3]thiazepine-7-carboxamide hydrochloride], the “% viability after treatment” value (hydrochloride) is “B (B=26-50% viability)”.

`C=CCC1C[C@@H]2SCC[C@H](NC(=O)[C@H](C)NC)C(=O)N2[C@@H]1C(=O)N[C@@H]1CCCc2ccccc21` (stereo partly drawn) [Compound 27, (4S,9aS)-8,8-allyl-4-((S)-2-(methylamino)propanamido)-5-oxo-N—((R)-1,2,3,4-tetrahydronaphthalen-1-yl)octahydropyrrolo[2,1-b][1,3]thiazepine-7-carboxamide hydrochloride]: the “% viability after treatment” value (hydrochloride) is on record as “B (B=26-50% viability)”. `C=CCC1(CC=C)C[C@@H]2OCC[C@H](NC(=O)[C@H](C)NC)C(=O)N2[C@@H]1C(=O)NC(c1ccccc1)c1ccccc1` [Compound 52, (4S)-8,8-diallyl-N-benzhydryl-4-((S)-2-(methylamino)propanamido)-5-oxooctahydropyrrolo[2,1-b][1,3]oxazepine-7-carboxamide hydrochloride]: the “% viability after treatment” value (hydrochloride) is given as “B (B=26-50% viability)”. Same read-out and setting: to `C=CCC1(CC=C)C[C@@H]2OCC[C@H](NC(=O)[C@H](C)NC)C(=O)N2[C@@H]1C(=O)NC(c1ccccc1)c1ccccc1` [Compound 51, (4S)-8,8-diallyl-N-benzhydryl-4-((S)-2-(methylamino)propanamido)-5-oxooctahydropyrrolo[2,1-b][1,3]oxazepine-7-carboxamide hydrochloride] belongs “B (B=26-50% viability)”.

The compound `CN[C@@H](C)C(=O)N[C@H]1CCS[C@H]2CC(C)(C)[C@@H](C(=O)N[C@H](CCC(=O)O)c3ccccc3)N2C1=O` [Compound 77, (R)-4-((4S,7S,9aS)-8,8-dimethyl-4-((S)-2-(methylamino)propanamido)-5-oxooctahydropyrrolo[2,1-b][1,3]thiazepine-7-carboxamido)-4-phenylbutanoic acid hydrochloride] showed a viability at 10 µM of 26 to 50%. On the same count and under the same terms, then `CN[C@@H](C)C(=O)N[C@H]1Cc2ccc(OC)cc2[C@H]2CC(C)(C)C(C(=O)NC(c3ccccc3)c3ccccc3)N2C1=O` (single isomer, unassigned) [Compound 6, hydrochloride], with 26 to 50%; and `CN[C@@H](C)C(=O)N[C@H]1Cc2cc(OC)ccc2[C@H]2CC(C)(C)[C@H](C(=O)N[C@@H]3CCCc4ccccc43)N2C1=O` [Compound 8, (6S,11bR)-9-methoxy-2,2-dimethyl-6-((S)-2-(methylamino)propanamido)-5-oxo-N—((R)-1,2,3,4-tetrahydronaphthalen-1-yl)-2,3,5,6,7,11b-hexahydro-1H-benzo[c]pyrrolo[1,2-a]azepine-3-carboxamide hydrochloride], with 26 to 50%; and `CCC1C[C@@H]2OCC[C@H](NC(=O)[C@H](C)NC)C(=O)N2C1C(=O)N[C@@H]1CCCc2ccccc21` (stereo partly drawn) [Compound 20, (4S)-8,8-ethyl-4-((S)-2-(methylamino)propanamido)-5-oxo-N—((R)-1,2,3,4-tetrahydronaphthalen-1-yl)octahydropyrrolo[2,1-b][1,3]oxazepine-7-carboxamide hydrochloride], with 26 to 50%.
